According to US20130243720A1, “Iron(II)-Containing A Treatments for Hyperphosphatemia” (priority 2006, published 2013):

Test system: Sprague Dawley (SD) rats
Test: Effects of compounds for reducing urinary phosphate levels in rats fed treatment diet
Type: in vivo, rat
Conditions: male SD rats; for Urinary Phosphate: urine collected on days 5 and 6
Method: House male Sprague Dawley (SD) rats were used for the experiments. The rats were placed singly in wire-bottom cages, fed with Purina 5002 diet, and allowed to acclimate for at least 5 days prior to experimental use.
To establish baseline phosphorus excretion, the rats were placed in metabolic cages for 48 hours. Their urine was collected and its phosphorus content analyzed with a Hitachi analyzer to determine phosphorus excretion in mg/day. Any rats with outlying values were excluded; and the remainder of the rats was distributed into groups.
Purina 5002 was used as the standard diet. The compound or compound mixture being tested was mixed with Purina 5002 to result in a final concentration 0.5% (or as indicated in the table) by weight. Cellulose at 0.5% by weight was used as a negative control. For each rat, 200 g of diet was prepared.
Each rat was weighed and placed on the standard diet. After 4 days the standard diet was replaced with the treatment diet (or control diet for the control group). On days 5 and 6, urine samples from the rats at 24 hours (+/−30 minutes) were collected and analyzed. The test rats were again weighed, and any weight loss or gain was calculated. Any remaining food was also weighed to calculate the amount of food consumed per day. A change in phosphorus excretion relative to baseline and cellulose negative control was calculated using Excel program.

[1] = 0.5% of diet, urinary phosphorus excretion relative to baseline and cellulose negative control
[2] = compound mixed with Purina 5002 diet at 0.5% by weight

Compound | % Control [1] [%] | Urinary Phosphate [2] [mg/day] | % Control (0.30% of diet, relative to baseline and cellulose negative control) [%] | Urinary Phosphate (0.30% of diet) [mg/day] | % Control (0.5% of diet, urinary phosphorus excretion relative to baseline and cellulose negative control, listed as Iron(II) Acetate) [%] | % Control (0.7% of diet, relative to baseline and cellulose negative control) [%] | Urinary Phosphate (0.7% of diet) [mg/day] | Urinary Phosphate (compound mixed with Purina 5002 diet at 0.5% by weight, listed as Iron(II) Acetate) [mg/day]
O=C([O-])C(=O)[O-].[Fe+2] [Iron(II) oxalate, iron(II) oxalate] | 89.0 | 14.8 | – | – | – | – | – | –
[Fe+2].[O-2] [Iron(II)oxide, iron(II) oxide] | 104.3 | 20.2 | – | – | – | – | – | –
(+)-iron(II) L-ascorbate | 78.6 | 13.4 | – | – | – | – | – | –
CC(=O)[O-].CC(=O)[O-].[Fe+2] [Iron(II) acetate, iron(II) acetate] | 65.9 | 12.8 | 67.4 | 12.1 | 69.1 | 44.4 | 8.0 | 12.4
CC(=O)/C=C(/C)O.CC(=O)/C=C(/C)O.[Fe] [Fe(II) acetylacetonato] | 55.6 | 10.4 | – | – | – | – | – | –
